Results from patent publication EP0489581A2, “Cosmetic composition” (UNILEVER PLC, priority 1990, dated 1992).

Tested on: skin surface
Experiment: Body shampoo streak of 0.1% EtNic against placebo on the other side (erythema meter, Cyclops pyrometer)
Assay type: in vivo, human
Set-up: ERYTHEMA METER AN / ERYTHEMA METER FA / ERYTHEMA METER UA / ERYTHEMA METER BR / ERYTHEMA METER SH / ERYTHEMA METER WA / ERYTHEMA METER HI / ERYTHEMA METER TH / ERYTHEMA METER CA: scale not given here; TEMPERATURE CHANGE FA / TEMPERATURE CHANGE UA / TEMPERATURE CHANGE BR / TEMPERATURE CHANGE SH / TEMPERATURE CHANGE WA / TEMPERATURE CHANGE HI / TEMPERATURE CHANGE TH / TEMPERATURE CHANGE CA / TEMPERATURE CHANGE AN: unit not given here
Settings: for ERYTHEMA METER AN / TEMPERATURE CHANGE AN / ERYTHEMA METER CA / TEMPERATURE CHANGE CA / ERYTHEMA METER HI / TEMPERATURE CHANGE HI / ERYTHEMA METER FA / TEMPERATURE CHANGE FA / ERYTHEMA METER BR / TEMPERATURE CHANGE BR / ERYTHEMA METER SH / TEMPERATURE CHANGE SH / ERYTHEMA METER TH / TEMPERATURE CHANGE TH / ERYTHEMA METER UA / TEMPERATURE CHANGE UA / ERYTHEMA METER WA / TEMPERATURE CHANGE WA: 0.1% EtNic; for ERYTHEMA METER AN / TEMPERATURE CHANGE AN: ankle; for ERYTHEMA METER CA / TEMPERATURE CHANGE CA: calf; for ERYTHEMA METER HI / TEMPERATURE CHANGE HI: hip; for ERYTHEMA METER FA / TEMPERATURE CHANGE FA: mid forearm; for ERYTHEMA METER BR / TEMPERATURE CHANGE BR: side breast; for ERYTHEMA METER SH / TEMPERATURE CHANGE SH: side shoulder; for ERYTHEMA METER TH / TEMPERATURE CHANGE TH: thigh; for ERYTHEMA METER UA / TEMPERATURE CHANGE UA: upper arm; for ERYTHEMA METER WA / TEMPERATURE CHANGE WA: waist
Experimental: A subject showered in the conventional way but without shampoo or soap. The redness and temperature of the skin surface was measured at symmetrical points from the mid forearm down the body to the ankle, after the excess water had been removed by light towelling. The person re-showered and between 2 and 3 grammes of shampoo according to Example 5 was streaked down one side of the body in a broad line. The body shampoo was rubbed into a lather periodically during the two minutes. A placebo shampoo of corresponding composition was applied first to one side of the body and then the time started when the shampoo with the ethyl nicotinate was applied to the other side. […] The redness was measured with the erythema meter whilst the temperature was measured with a Cyclops pyrometer at ten sites on each side. The time was taken as the mean of the two times for each pair of sites. The time course was followed for about 50 minutes. After about 210 minutes the experiment was repeated, but treating the opposite sides. The result shown below are the differences in redness and temperature of the corresponding sites.

[1] = left hand side, mean time 0.00 (baseline), difference of corresponding sites
[2] = left hand side, mean time 17.56, difference of corresponding sites
[3] = left hand side, mean time 31.56, difference of corresponding sites
[4] = left hand side, mean time 44.89, difference of corresponding sites
[5] = left hand side, mean time 59.61, difference of corresponding sites
[6] = left hand side, mean time 77.21, difference of corresponding sites
[7] = left hand side, time 10.00, mean time 10.37, difference of corresponding sites
[8] = left hand side, time 25.00, mean time 24.98, difference of corresponding sites
[9] = left hand side, time 38.00, mean time 38.30, difference of corresponding sites
[10] = left hand side, time 53.00, mean time 52.87, difference of corresponding sites
[11] = right hand side, mean time 0.00 (baseline), difference of corresponding sites
[12] = right hand side, time 10.00, mean time 9.79, difference of corresponding sites
[13] = right hand side, time 26.00, mean time 26.13, difference of corresponding sites
[14] = right hand side, time 42.00, mean time 42.25, difference of corresponding sites
[15] = right hand side, time 210.00, mean time 209.78, difference of corresponding sites
[16] = all the sites, shampoo according to Example 5, two minutes

CCOC(=O)c1cccnc1 [EtNic, ethyl nicotinate]
ERYTHEMA METER AN [1]: -0.53 | TEMPERATURE CHANGE AN [1]: -0.10 | TEMPERATURE CHANGE AN [2]: 0.30 | TEMPERATURE CHANGE AN [3]: -0.20 | TEMPERATURE CHANGE AN [4]: 0.70 | TEMPERATURE CHANGE AN [5]: 0.80 | TEMPERATURE CHANGE AN [6]: 0.30 | ERYTHEMA METER AN [7]: 0.29 | ERYTHEMA METER AN [8]: 0.56 | ERYTHEMA METER AN [9]: -0.43 | ERYTHEMA METER AN [10]: -0.25 | ERYTHEMA METER CA [1]: -0.26 | TEMPERATURE CHANGE CA [1]: -0.30 | TEMPERATURE CHANGE CA [2]: 2.90 | TEMPERATURE CHANGE CA [3]: 2.30 | TEMPERATURE CHANGE CA [4]: 1.10 | TEMPERATURE CHANGE CA [5]: 0.90 | TEMPERATURE CHANGE CA [6]: 0.50 | ERYTHEMA METER CA [7]: 0.26 | ERYTHEMA METER CA [8]: 0.41 | ERYTHEMA METER CA [9]: -0.17 | ERYTHEMA METER CA [10]: -0.12 | ERYTHEMA METER HI [1]: 0.03 | TEMPERATURE CHANGE HI [1]: 0.10 | TEMPERATURE CHANGE HI [2]: 1.10 | TEMPERATURE CHANGE HI [3]: 3.70 | TEMPERATURE CHANGE HI [4]: 3.30 | TEMPERATURE CHANGE HI [5]: 2.90 | TEMPERATURE CHANGE HI [6]: 2.20 | ERYTHEMA METER HI [7]: 0.74 | ERYTHEMA METER HI [8]: 0.31 | ERYTHEMA METER HI [9]: 0.12 | ERYTHEMA METER HI [10]: 0.13 | ERYTHEMA METER FA [1]: -0.65 | TEMPERATURE CHANGE FA [1]: -0.20 | TEMPERATURE CHANGE FA [2]: -0.50 | TEMPERATURE CHANGE FA [3]: 0.20 | TEMPERATURE CHANGE FA [4]: -0.30 | TEMPERATURE CHANGE FA [5]: 0.20 | TEMPERATURE CHANGE FA [6]: 0.00 | ERYTHEMA METER FA [7]: 0.39 | ERYTHEMA METER FA [8]: 0.00 | ERYTHEMA METER FA [9]: -0.06 | ERYTHEMA METER FA [10]: 0.05 | ERYTHEMA METER BR [1]: -0.12 | TEMPERATURE CHANGE BR [1]: -1.10 | TEMPERATURE CHANGE BR [2]: 4.80 | TEMPERATURE CHANGE BR [3]: 4.80 | TEMPERATURE CHANGE BR [4]: 4.30 | TEMPERATURE CHANGE BR [5]: 1.70 | TEMPERATURE CHANGE BR [6]: 1.00 | ERYTHEMA METER BR [7]: 1.09 | ERYTHEMA METER BR [8]: 0.71 | ERYTHEMA METER BR [9]: 0.91 | ERYTHEMA METER BR [10]: 0.41 | ERYTHEMA METER SH [1]: 0.00 | TEMPERATURE CHANGE SH [1]: 0.40 | TEMPERATURE CHANGE SH [2]: 3.40 | TEMPERATURE CHANGE SH [3]: 4.50 | TEMPERATURE CHANGE SH [4]: 3.30 | TEMPERATURE CHANGE SH [5]: 1.50 | TEMPERATURE CHANGE SH [6]: 0.30 | ERYTHEMA METER SH [7]: 1.08 | ERYTHEMA METER SH [8]: 1.06 | ERYTHEMA METER SH [9]: 0.77 | ERYTHEMA METER SH [10]: 0.38 | ERYTHEMA METER TH [1]: -0.23 | TEMPERATURE CHANGE TH [1]: 0.10 | TEMPERATURE CHANGE TH [2]: 3.70 | TEMPERATURE CHANGE TH [3]: 3.20 | TEMPERATURE CHANGE TH [4]: 2.50 | TEMPERATURE CHANGE TH [5]: 1.90 | TEMPERATURE CHANGE TH [6]: 1.30 | ERYTHEMA METER TH [7]: 0.47 | ERYTHEMA METER TH [8]: 0.43 | ERYTHEMA METER TH [9]: 0.28 | ERYTHEMA METER TH [10]: 0.17 | ERYTHEMA METER UA [1]: -0.28 | TEMPERATURE CHANGE UA [1]: 0.00 | TEMPERATURE CHANGE UA [2]: 3.10 | TEMPERATURE CHANGE UA [3]: 3.60 | TEMPERATURE CHANGE UA [4]: 2.70 | TEMPERATURE CHANGE UA [5]: 1.80 | TEMPERATURE CHANGE UA [6]: 1.40 | ERYTHEMA METER UA [7]: 1.35 | ERYTHEMA METER UA [8]: 0.67 | ERYTHEMA METER UA [9]: 0.82 | ERYTHEMA METER UA [10]: 0.23 | ERYTHEMA METER WA [1]: 0.03 | TEMPERATURE CHANGE WA [1]: -0.30 | TEMPERATURE CHANGE WA [2]: 4.80 | TEMPERATURE CHANGE WA [3]: 6.80 | TEMPERATURE CHANGE WA [4]: 6.40 | TEMPERATURE CHANGE WA [5]: 5.00 | TEMPERATURE CHANGE WA [6]: 3.60 | ERYTHEMA METER WA [7]: 0.66 | ERYTHEMA METER WA [8]: 0.44 | ERYTHEMA METER WA [9]: 0.79 | ERYTHEMA METER WA [10]: 0.05 | ERYTHEMA METER AN [11]: 0.08 | ERYTHEMA METER AN [12]: 0.62 | ERYTHEMA METER AN [13]: 0.57 | ERYTHEMA METER AN [14]: 0.57 | ERYTHEMA METER AN [15]: 0.53 | ERYTHEMA METER CA [11]: 0.06 | ERYTHEMA METER CA [12]: 0.87 | ERYTHEMA METER CA [13]: 0.75 | ERYTHEMA METER CA [14]: 0.58 | ERYTHEMA METER CA [15]: 0.26 | ERYTHEMA METER HI [11]: 0.44 | ERYTHEMA METER HI [12]: 0.92 | ERYTHEMA METER HI [13]: 0.55 | ERYTHEMA METER HI [14]: 0.50 | ERYTHEMA METER HI [15]: -0.03 | ERYTHEMA METER FA [11]: 0.20 | ERYTHEMA METER FA [12]: -0.28 | ERYTHEMA METER FA [13]: 0.51 | ERYTHEMA METER FA [14]: 0.41 | ERYTHEMA METER FA [15]: 0.65 | ERYTHEMA METER BR [11]: 0.06 | ERYTHEMA METER BR [12]: 1.20 | ERYTHEMA METER BR [13]: 1.48 | ERYTHEMA METER BR [14]: 0.72 | ERYTHEMA METER BR [15]: 0.12 | ERYTHEMA METER SH [11]: 0.12 | ERYTHEMA METER SH [12]: 1.81 | ERYTHEMA METER SH [13]: 1.61 | ERYTHEMA METER SH [14]: 0.81 | ERYTHEMA METER SH [15]: 0.00 | ERYTHEMA METER TH [11]: 0.07 | ERYTHEMA METER TH [12]: 0.87 | ERYTHEMA METER TH [13]: 0.43 | ERYTHEMA METER TH [14]: 0.04 | ERYTHEMA METER TH [15]: 0.23 | ERYTHEMA METER UA [11]: 0.38 | ERYTHEMA METER UA [12]: 0.89 | ERYTHEMA METER UA [13]: 1.40 | ERYTHEMA METER UA [14]: 0.74 | ERYTHEMA METER UA [15]: 0.28 | ERYTHEMA METER WA [11]: 0.06 | ERYTHEMA METER WA [12]: 1.16 | ERYTHEMA METER WA [13]: 1.09 | ERYTHEMA METER WA [14]: 0.70 | ERYTHEMA METER WA [15]: -0.03 | redness [16]: increase | temperature [16]: increase | maximum temperature difference (at the waist): seven
